US20210228523A1, “MODULATORS OF SESTRIN-GATOR2 INTERACTION AND USES THEREOF” (Navitor Pharmaceuticals, Inc., priority 2017, published 2021)

Experiments:
[1] = target: T1, GATOR2/Sestrin2 complexes (Homo sapiens, UniProt P58004); assay: In vitro PPI assay (Method 1; Western blot assay): Sestrin2 bound to GATOR2 after compound addition to immunoprecipitated FLAG-WDR24 complex; format: binding; settings: 25 μM, % activity relative to leucine (25 μM = 100%)
T1 construct: endogenous in cells; host or cells: HEK293T cells stably expressing FLAG-WDR24 (lentiviral, pLJM60)
T1 sequence (P58004 1-480): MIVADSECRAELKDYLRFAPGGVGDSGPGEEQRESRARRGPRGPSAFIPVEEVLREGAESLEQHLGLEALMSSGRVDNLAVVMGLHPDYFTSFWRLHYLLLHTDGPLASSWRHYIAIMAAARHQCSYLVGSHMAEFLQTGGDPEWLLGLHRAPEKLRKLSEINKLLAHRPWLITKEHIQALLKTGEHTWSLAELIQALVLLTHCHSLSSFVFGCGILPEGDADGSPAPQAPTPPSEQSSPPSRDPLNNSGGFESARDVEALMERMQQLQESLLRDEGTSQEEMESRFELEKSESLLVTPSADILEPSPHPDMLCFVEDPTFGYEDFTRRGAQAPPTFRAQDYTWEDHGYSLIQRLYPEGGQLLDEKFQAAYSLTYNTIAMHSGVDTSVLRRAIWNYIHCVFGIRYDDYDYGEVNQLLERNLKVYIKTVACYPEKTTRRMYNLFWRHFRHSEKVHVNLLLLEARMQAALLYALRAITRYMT
Excerpt: This screening assay measured test compound activity in vitro on GATOR2/Sestrin2 complexes purified via immunoprecipitation of stably expressed FLAG-WDR24 from HEK293T cells. HEK293T cells (293 Ts) were engineered to stably express N-terminally tagged FLAG-WDR24 via transduction by lentivirus. Lentiviruses were produced by co-transfection of the lentiviral transfer vector pLJM60 with the […] into HEK-293T cells using the XTremeGene 9 transfection reagent (Roche Diagnostics). The media was changed 24 hours post-transfection to Dulbecco's Modified Eagle's media (DMEM) supplemented with 30% Inactivated Fetal Serum. The virus-containing supernatants were collected 48 and 72 hours after transfection and passed through a 0.45 μm filter to eliminate cells. Target cells in 6-well tissue culture plates were infected in media containing 8 μg/mL polybrene and spin infections were performed by centrifugation at 2,200 rpm for 1 hour. Twenty-four hours after infection, the virus was removed and the cells selected with the appropriate antibiotic. Cells were then grown in DMEM supplemented with 10% fetal bovine serum and antibiotics.
Seventy-two hours later, cells were placed in standard RPMI media formulated with no amino acids and supplemented with 5 mM Glucose (−AA RPMI, US Biological Life Sciences) for 1 hour then subsequently lysed in lysis buffer (40 mM HEPES, 1% Triton, 10 mM sodium β-glycerophosphate, 10 mM sodium pyrophosphate, 2.5 mM MgCl2 and protease inhibitors). To isolate the FLAG-WDR24/endogenous-Sestrin2 complex, crude lysate (equivalent to 2-4 mg of total protein) in a volume of 1 ml was subjected to immunoprecipitation with 30 μl of anti-flag resin (SIGMA) for 2 hours at 4° C., washed twice in cold lysis buffer plus 0.5M NaCl and resuspended in 1 ml of cold cytosolic buffer (40 mM HEPES pH 7.4, 140 mM KCl, 10 mM NaCl, 2.5 mM MgCl2, 0.1% TritonX-100). […] After the incubation period, samples were centrifuged to pellet the FLAG-WDR24/endogenous-Sestrin2 complex bound to the anti-flag resin, the supernatant was completely removed and resin was resuspended in SDS-PAGE sample buffer and boiled for 5 minutes. Samples were then processed by SDS-PAGE and western blots were performed with anti-FLAG (SIGMA) and anti-Sestrin2 (Cell Signaling Technology) antibodies as described in L. Chantranupong, et al., Cell Reports 9:1-8 (2014).
The resulting western blots were scanned and band intensities corresponding to Sestrin2 and FLAG-WDR24 were quantified using the LI-COR® imaging platform. To determine the amount of Sestrin2 bound to GATOR2 for each condition, the band intensity for Sestrin2 was normalized to the band intensity of FLAG-WDR24. […]
72 hours later, cells were placed in standard RPMI media formulated with no amino acids and supplemented with 5 mM Glucose (−AA RPMI, USBiological Life Sciences) for 1 hour then subsequently lysed in lysis buffer (40 mM HEPES, 1% Triton, 10 mM Sodium Beta-Glycerophosphate, 10 mM Sodium Pyrophosphate, 2.5 mM MgCl2 and protease inhibitors). The Flag-WDR24/endogenous-Sestrin2 complex was isolated as follows: crude lysate (equivalent to 2-4 mg of total protein) in a volume of 1 ml was subjected to immunoprecipitation (IP) with 30 μl of anti-flag resin (SIGMA) for 2 hours at 4° C., washed twice in cold lysis buffer plus 0.5M NaCl and resuspended in 1 ml of cold cytosolic buffer (40 mM HEPES pH 7.4, 140 mM KCl, 10 mM NaCl, 2.5 mM MgCl2, 0.1% TritonX-100). Compounds were then added to each sample at a given concentration of 25 μM and incubated with rotation at 4° C. for 30 minutes. After the incubation period, samples were centrifuged to pellet the Flag-WDR24/endogenous-Sestrin2 complex bound to the anti-flag resin, the supernatant was completely removed and resin was resuspended in sodium dodecyl sulfate-polyacrylamide gel electrophoresis (SDS-PAGE) sample buffer and boiled for 5 minutes. […]

[2] = system: mTORC1 signaling; assay: Cell-based mTORC1 activation (Method 2): western blot of phosphorylated S6 Kinase/4EBP1 in leucine-starved HEK293T cells; settings: concentration 100 μM, shift relative to DMSO control
Method: Briefly, 800,000 HEK293T cells were plated in each well of a 6-well plate in DMEM supplemented with 10% fetal bovine serum and antibiotics. […] Cells were then lysed, processed for SDS-PAGE and western blotting was performed with antibodies directed against the mTORC1 substrates phosphorylated S6 Kinase (Thr389) and phosphorylated 4EBP1 (Thr37/46) (Cell Signaling Technology) and loading controls (beta-actin, Santa Cruz Biotechnology) as described in Kang, S. A., et al. Science 341(6144): 364-374 (2013). The intensity of the bands corresponding to the phosphorylated substrates were then normalized to the actin band using the LI-COR® imaging platform.

[3] = system: mTORC1; assay: Western blot of pS6 in rat brain and selected peripheral organs; format: in vivo; settings: Example D; Leu 500 mg/kg oral; 1 hr post-dose
Method: Study Design: Thirty (30) male rats weighing between 175 and 200 g were randomized into 3 study groups (n=10), following a 5-day acclimation period. One hour following dosing rats were sacrificed by conscious decapitation, plasma, brain and selected peripheral tissues were harvested for compound level and WB analysis. Tissues were prepared for WB to quantitate the mTORC1 substrate pS6 as a measure of mTORC1 activity.
The dosing volume based on the weight of the animal (10 mL/kg) was administered by oral gavage. Test articles were prepared the day of dosing.
Tissues Preparations: One hour following dosing rats were sacrificed by conscious decapitation, plasma, brain and peripheral tissues were harvested and immediately frozen in liquid nitrogen. Tissues were thawed and homogenized for 1 min twice using MP homogenizer in Lysis Buffer (Cell lysis buffer: 1% Triton X-100, 50 mM HEPES pH 7.4, 100 mM NaCl, 2 mM EDTA, 10 mM Beta-glycerophosphate, 10 mM Sodium pyrophosphate, and 1 protease inhibitor tab per 50 mL fresh) at 4° C. Lysates were then sonicated on ice for 20 s at 50% amplitude. The protein concentration was determined by Bradford assay and all samples were mixed with loading buffer (50 mM Tris-HCl pH 6.8, 2% SDS, 5% glycerol, 5% β-mercaptoethanol and 0.01% Bromophenol blue) and stored at −20° C. until WB analysis.
Western Blot (WB) Analysis. Equal amounts of each sample (15 μg of total protein) were loaded and separated on NuPAGE 4-12% Bis-Tris gels and transferred to PVDF membrane (Immobilon-FL PVDF membrane, Millipore) using CAPS Buffer (10 mM 3-(Cyclohexylamino)-1-propanesulfonic acid, 12.5% Ethanol pH=10). After transfer, membranes were incubated for 1 hr at room temperature in Odyssey blocking buffer (Licor). After blocking, membranes were incubated at 4° C. overnight with primary antibodies. Primary antibodies used were rabbit anti-[…] (cell signaling; #5364) at 1:1000, mouse anti-GAPDH (Sigma; #G8795) at 1:1000 and mouse anti-a-tubulin (Sigma; #T5168) at 1:10000 in Odyssey blocking buffer. The next day, membranes were washed three times in 1×TBS-Tween (25 mM Tris, pH 7.4, 3.0 mM KCl, 140 mM NaCl and 0.05% Tween-20) and incubated with dye-coupled secondary antibodies (goat anti-mouse IRdye680, and goat anti-rabbit IRdye800 from LI-COR) at 1:20000 in Odyssey blocking buffer for 30 min then wash three times in IX TBS-Tween. Signals were quantified using the Odyssey Infrared Imaging System (LI-COR Bioscience). The resulting densitometric readings were used to generate a ratio of phopho-protein to a-tubulin or GAPDH. The resulting ratio was further normalized to vehicle treated control group.

[4] = system: point mutant form of Sestrin2 unable to bind leucine; assay: ILBA with Flag-tagged point mutant Sestrin2; format: binding, human
Method: In one version, the assay was performed with crude lysate generated from a human cell line after a 1-hour period of amino acid starvation (cells are lysed in 1% Triton, 10 mM beta-glycerol phosphate, 10 mM sodium pyrophosphate, 40 mM HEPES [pH 7.4], 150 mM NaCl and 2.5 mM MgCl2). […] After compound incubation, samples were subjected to immunoprecipitation with the CST anti-Sestrin2 antibody for 1.5 hours followed by a 30-minute incubation with protein-A sepharose as described in L. Chantranupong, et al., Cell Reports 9:1-8 (2014). The sepharose conjugated antibody-protein complex was precipitated via centrifugation and the flow-through was subjected to a second round of immunoprecipitation with a rabbit polyclonal anti-Sestrin2 antibody (Protein Tech, #10795-1-AP) to determine that total Sestrin2 protein levels between samples were equal. SDS-PAGE was performed with the immunoprecipitation samples followed by western-blot with the mouse monoclonal anti-Sestrin2 antibody from SIGMA (cat #WH0083667M3).
This assay was also performed in cultured human cells over-expressing Sestrin2 N-terminally fused to a Flag tag. In this version of the assay, the procedure remained the same, but immunoblotting was performed with a mouse anti-Flag antibody (#F3165, SIGMA).

decrease in affinity of the CST antibody upon ligand binding [4] | Compound | Activity of Leucine: % Activity [1] | Cell-Based mTORC1 Activation [2] | pS6 levels in rat brain [3]
 | C[C@H](CC(N)C(=O)O)C(F)(F)F (stereo in doubt) [Compound I-167, (2R,4R)-2-amino-5,5,5-trifluoro-4-methylpentanoic Acid] | A (a % activity relative to leucine of ≥40%) | D to F | 
 | CC(C)C[C@H](N)C(N)=O.Cl [Compound I-23] | C (a % activity relative to leucine of between -40 and 40%) | D to F | 
 | N[C@@H](CC1CCC1)C(=O)O [Compound I-37] | A (a % activity relative to leucine of ≥40%) | E to F | 
 | NC(CCCC(F)(F)F)C(=O)O (stereo not shown) [Compound I-42] | A (a % activity relative to leucine of ≥40%) | D to F | 
 | CC(C)(C)C[C@H](N)C(=O)O [Compound I-43] | A (a % activity relative to leucine of ≥40%) | D to E | 
 | COC(=O)[C@@H](N)CC(C)C [Compound I-168] |  | D to E | 
 | CC(C)C[C@H](N)C(=O)O [Leu, Leucine, reference compound] |  |  | no activation was observed
not observed | CC(C)(C)C[C@H](N)C(=O)O [γ-methylleucine] |  |  | 
